One data set relates to Lepomis macrochirus. The note with it: acute; duration: 96 hours; mortality.
The subject of a further data set is Anas platyrhynchos. The note with it: short-term; oral; feed; mortality.
Another data set deals with Apis mellifera. The settings on record: acute; duration: 48 hours; dermal; mortality.
The test system of the next data set is Folsomia candida. The note with it: chronic/long-term; duration: 28 days; mortality.
The next data set deals with Tagia sp. The note with it: acute; duration: 14 days; mortality.
In the next data set the test system is Aphidius rhopalosiphi. As to the kind of experiment: LR50; higher = less toxic. The note with it: not reported; mortality.

The record followed here is EPA's ToxValDB 9.5 (doi:10.2903/j.efsa.2011.2018).

≈ marks a conversion by molar mass, not a printed value. Some results are limits rather than exact numbers.

In general, LOAEL refers to the lowest dose or exposure tested at which an adverse effect was seen. One may read the NOAEL as the highest tested level that showed no adverse finding.

Take `[O-][n+]1nc(-n2ccnc2)nc2ccc(Cl)cc21` [Triazoxide]: the LC50 in the data set on Lepomis macrochirus is 0.077 µg/mL (≈ 0.311 µM); in the data set on Anas platyrhynchos, 268 mg/kg-day; in the data set on Tagia sp., > 1000 mg/kg. For the same compound, the LD50 in the data set on Coturnix japonica (acute, oral, mortality) is 90 mg/kg-day; in the data set with Apis mellifera, > 200 µg/piece; in the data set with Rattus norvegicus (acute, oral, mortality), 14 mg/kg-day. For the same compound, the NOEC was 11.7 mg/kg-day in the data set on Coturnix japonica (reproduction developmental, duration: 6 weeks) and 500 mg/kg in the data set with Folsomia candida. Moreover, the LOAEL with Rattus norvegicus (chronic, duration: 2 years, gross pathology) came out at 0.05 mg/kg-day. In the data set with Rattus norvegicus (reproduction developmental, no effects), this compound had an NOEL of 2.04 mg/kg-day. Moreover, the NOAEL in the data set on Rattus norvegicus (short-term, duration: 28 days) was determined as 1.5 mg/kg-day; in the data set on Rattus norvegicus (subchronic, duration: 90 days, oral, hematological), 0.21 mg/kg-day. For the same compound, in the data set with Aphidius rhopalosiphi, the LR50 was > 5.13 g/ha.
